# Laboratory results reported in US5384119A, “Method of preventing neutrophil mediated connective tissue damage” (Merrell Dow Pharmaceuticals Inc., priority 1993, dated 1995).
# pIC50: −log10 of the molar value. Like-named read-outs stand apart in the source and are kept apart here.
# Columns and labels:
# cathepsin G [1] = biological target: T1, cathepsin G (Homo sapiens, UniProt P08311); assay: Cathepsin G mediated degradation of 35S-labeled cartilage matrix proteoglycan (CPG); format: biochemical; conditions: cartilage discs, 4 hours at 37° C., FIG. 4
# T1 construct: Both purified human neutrophil elastase and cathepsin G degrade CPG; from tissue; host or cells: human neutrophils
# T1 sequence (P08311 21-244 limits assumed): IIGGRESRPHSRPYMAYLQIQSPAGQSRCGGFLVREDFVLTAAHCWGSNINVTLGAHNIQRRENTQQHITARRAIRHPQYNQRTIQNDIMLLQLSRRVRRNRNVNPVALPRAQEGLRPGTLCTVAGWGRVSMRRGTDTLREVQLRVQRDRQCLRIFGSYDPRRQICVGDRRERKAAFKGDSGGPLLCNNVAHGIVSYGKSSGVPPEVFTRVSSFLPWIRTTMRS
# Method: (§1) Fresh bovine nasal septa were obtained from a local abattoir and 4 mm cartilage cylinders were prepared using a No. 2 cork borer. The cylinders were sliced into 1 mm discs. The top and bottom discs were discarded and the remaining cartilage discs were pooled, washed three times in HBSS and resuspended in Dulbecco's Modified Eagles Medium (DMEM) with antibiotics and supplements. The sulfated sugars that constitute the glycosaminoglycan side chains of cartilage proteoglycan were radiolabeled by the addition of 10 μCi/ml of Na2^35 SO4 followed by incubation overnight at 37° C. with gentle rocking. […]
# (§2) The ability of neutrophil proteases to degrade connective tissue matrix was measured by incubating ^35 S-radiolabeled cartilage discs with neutrophil lysate, purified elastase or cathepsin G in serumless media for 4 hours at 37° C. and collecting the supernatants and counting the radiolabeled material in the supernatants and discs. The radioactivity remaining in the cartilage discs after removal of the supernatant was assayed by completely digesting the discs in 6M HCl at 100° C. for 1 hour, removing the HCl by vacuum evaporation and resuspending the dried material in 0.5 ml HBSS. Supernatants and processed discs were counted in a Beckman LS 3801 scintillation counter. The data were expressed as the percent at ^35 S label released into the supernatant. […]
# [2] = biological target: T2, purified human neutrophil elastase (Homo sapiens, UniProt P08246); assay: Elastase mediated degradation of 35S-labeled cartilage matrix proteoglycan (CPG); format: biochemical; conditions: cartilage discs, 4 hours at 37° C., FIG. 3
# T2 construct: Both purified human neutrophil elastase and cathepsin G degrade CPG; from tissue; host or cells: human neutrophils
# T2 sequence (P08246 30-247 limits assumed): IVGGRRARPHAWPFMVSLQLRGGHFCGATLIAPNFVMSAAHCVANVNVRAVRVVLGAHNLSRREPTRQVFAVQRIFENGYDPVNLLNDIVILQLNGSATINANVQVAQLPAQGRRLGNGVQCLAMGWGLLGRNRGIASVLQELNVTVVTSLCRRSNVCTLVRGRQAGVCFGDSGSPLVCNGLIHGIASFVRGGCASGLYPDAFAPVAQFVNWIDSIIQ
# Method: as §1, §2
# cathepsin G [3] = biological target: T1, cathepsin G; assay: Cathepsin G cleavage of synthetic substrate N-succinyl-Ala-Pro-Phe-p-nitroanalide; format: biochemical; conditions: 2 micrograms of cathepsin G, FIG. 2, read-out: IC50 for the inhibition of cathepsin G
# Method: (§3) Elastase activity is assayed using the specific substrate, N-methoxysuccinyl-Ala-Ala-Pro-Val-p-nitroanalide, and cathepsin G activity was measured using N-succinyl-Ala-Pro-Phe-p-nitroanalide. The assay buffer, 0.1M HEPES with 0.5M NaCl and 0.1% Brij-35, is used to dilute the elastase substrate to a final concentration of 0.2 mM and the cathepsin G substrate to 1 mM. The appropriate substrate in 2 ml of assay buffer is incubated at 37° C. in a heated spectrophotometer cell and the reaction is started by the addition of enzyme. In experiments where inhibitors were tested, the inhibitors were incubated with the enzyme for 5 min before the addition of substrate. […] was continuously monitored at 410 nm using a diode array spectrophotometer. Kinetic constants were determined using the kinetics software of the spectrophotometer.
# (§4) The ability of several sulfated polymers to inhibit elastase and cathepsin G degradation of their respective substrates was examined. MDL-101,028, a compound falling within the scope of the claimed invention, where the value of n is 6, and 4,4'-Diisothiocyanatostilbene-2,2'-disulfonic acid, internally identified as MDL-101,114 (DIDS) inhibited both elastase and cathepsin G in a dose-dependent manner.
# elastase = biological target: T3, elastase (Homo sapiens, UniProt P08246); assay: Elastase cleavage of synthetic substrate N-methoxysuccinyl-Ala-Ala-Pro-Val-p-nitroanalide; format: biochemical; conditions: 2 μg of elastase, FIG. 1, read-out: IC50 for the inhibition of elastase
# T3 sequence (P08246 30-247 limits assumed): T2 sequence (P08246 30-247 limits assumed)
# Method: as §3, §4
# Human neutrophils [4] = assay: Primary granule enzyme secretion (myeloperoxidase release) from neutrophils; format: cell-based; conditions: stimulated neutrophils
# Method: (§5) Radiolabeled cartilage discs were placed into the wells of 96-well microtiter plates and overlayed with human neutrophils suspended in DMEM containing 10% FCS. The neutrophils were stimulated by the addition of 1 mg/ml of opsonized zymosan and incubated for 4 hours at 37° C. with 5% CO2. Connective tissue matrix degradation was quantitated by the amount of radiolabel released. In experiments using protease inhibitors, the inhibitors were added immediately after the neutrophils. The viability of the neutrophils incubated with the protease inhibitors was determined by assaying the supernatants for lactic dehydrogenase (LDH) and by neutrophil exclusion of trypan blue. In addition, the effect of protease inhibitors on primary granule enzyme secretion was monitored by measuring the release of myeloperoxidase.
# (§6) The percentage of neutrophils stimulated with zymosan in media for 4 hours that excluded trypan blue was 85% compared to 77%-87% for neutrophils incubated with MDL-101,028 at doses of 4, 10, and 25 μM, respectively. This correlated with LDH release which was 9% for stimulated neutrophils treated with media, compared to 7-11% for neutrophils incubated with MDL-101,028 at concentrations of 4-25 μM.
# [5] = test system: human neutrophil elastase; assay: Elastase induced pulmonary hemorrhage in rats; format: in vivo, Male Sprague Dawley rats; conditions: rat; for Inhibition of lung hemorrhage (hemoglobin in lavage fluid): 100 μg elastase, FIG. 7; for Inhibition of lung hemorrhage: intratracheal, FIG. 8
# Method: Male Sprague Dawley rats were anesthetized with chloral hydrate (300 mg/kg) and either saline or human neutrophil elastase was administered intratracheally. Briefly, rats were placed on a surgical board, ventral side up, and their mouths held open using a rubber band placed over their incisors. The tongue was held to the side and 100 micro liters of elastase solution (1 mg/ml) was administered into the trachea with the aid of a bright light source and a 3 inch, 22 gauge blunt-end needle. One hour after elastase administration, the rats were sacrificed using CO2 and the trachea was surgically exposed and cannulated. The lungs were lavaged with 10 ml of saline and the hemoglobin content was-determined using the cyanmethemoglobin assay. In experiments where inhibitors were tested, the compounds were given intratracheally in 100 μl of saline at various times before elastase administration.
# Intratracheal instillation of human leukocyte elastase produced acute lung injury as assessed by hemorrhage (FIG. 7). The hemorrhage was quantified by measuring the hemoglobin content of the pulmonary lavage fluid. […] When MDL-101,028 was administered intratracheally immediately before elastase (within 30 seconds) at doses of 280 μg, 700 μg, or 2800 μg, lung hemorrhage was inhibited by 48%, 90%, and 90% respectively (FIG. 7).
# MDL-101,028 was administered to rats at various time intervals before instillation of elastase to determine the duration of action.
# Human neutrophils [6] = assay: Neutrophil viability (trypan blue exclusion, lactic dehydrogenase release); format: cell-based
# Method: as §5, §6
# Human neutrophil lysate = Human neutrophil lysate mediated degradation of CPG; format: biochemical; conditions: lysate 1:100, 4 hour at 37° C., FIG. 5
# Method: Human neutrophil granule lysates were prepared by resuspending 2.5×10^8 in 4 ml of […] sucrose and sonicating for 30 seconds using a microtip probe. […] The neutrophil lysate was centrifuged at 1000×g for 10 min. at 4° C., the supernatant was collected and centrifuged at 30,000×g for 30 min. at 4° C. and the pellet containing neutrophil granules was resuspended in 2 ml of 0.05M sodium acetate buffer, pH 5.5, containing 1M NaCl and 0.1% Brij-35 and kept on ice for 30 min. with several brief sonications of approximately 30 seconds during the incubation period. […] The granule lysate was centrifuged at 30,000×g for 30 min. at 4° C. and the supernatant was collected, tested for elastase and cathepsin G content using synthetic substrates as described above, aliquoted and stored at […] until used.
# Fresh bovine nasal septa were obtained from a local abattoir and 4 mm cartilage cylinders were prepared using a No. 2 cork borer. The cylinders were sliced into 1 mm discs. The top and bottom discs were discarded and the remaining cartilage discs were pooled, washed three times in HBSS and resuspended in Dulbecco's Modified Eagles Medium (DMEM) with antibiotics and supplements. […]
# as §2
SMILES,"pIC50 (cathepsin G [1]; read-out: IC50, cathepsin G mediated cartilage degradation)","pIC50 ([2]; read-out: IC50, elastase mediated cartilage degradation)",pIC50 (cathepsin G [3]),pIC50 (elastase),Myeloperoxidase release from neutrophils (Human neutrophils [4]),"pIC50 (cathepsin G [1]; read-out: IC50, cathepsin G mediated CPG degradation)","pIC50 ([2]; read-out: IC50, elastase mediated CPG degradation)",Inhibition of lung hemorrhage (hemoglobin in lavage fluid) ([5]; 280 μg intratracheally immediately before elastase (within 30 seconds)) [%],Inhibition of lung hemorrhage (hemoglobin in lavage fluid) ([5]; 700 μg intratracheally immediately before elastase (within 30 seconds)) [%],Inhibition of lung hemorrhage (hemoglobin in lavage fluid) ([5]; 2800 μg intratracheally immediately before elastase (within 30 seconds)) [%],Inhibition of lung hemorrhage ([5]; administered 1 hour before elastase) [%],Inhibition of lung hemorrhage ([5]; administered 2 hours before elastase) [%],Inhibition of lung hemorrhage ([5]; administered 4 hours before elastase) [%],Duration of action ([5]; intratracheal route),"LDH release (Human neutrophils [6]; concentrations of 4-25 μM, stimulated neutrophils (media control 9%), 240 min)","Percentage of neutrophils that excluded trypan blue (Human neutrophils [6]; doses of 4, 10, and 25 μM, zymosan stimulated, 4 hours (media control 85%))",Viability of the neutrophils (Human neutrophils [6]; trypan blue exclusion and lactic dehydrogenase release),Inhibition of CPG degradation by neutrophil lysate (Human neutrophil lysate; 4 μmolar) [%],Inhibition of CPG degradation by neutrophil lysate (Human neutrophil lysate; 10 μmolar) [%],Inhibition of CPG degradation by neutrophil lysate (Human neutrophil lysate; 25 μmolar) [%]
"O=S(=O)(O)c1cc(N=C=S)ccc1C=Cc1ccc(N=C=S)cc1S(=O)(=O)O [DIDS, 4,4'-Diisothiocyanatostilbene-2,2'-disulfonic acid, reference compound]",4.30,4.42,5.85,5.96,–,–,–,–,–,–,–,–,–,–,–,–,–,–,–,–
"Cc1ccc(NC(=O)Nc2ccc(-c3ccc(NC(=O)Nc4ccc(-c5ccc(NC(=O)Nc6ccc(-c7ccc(NC(=O)Nc8ccc(-c9ccc(NC(=O)Nc%10ccc(-c%11ccc(NC(=O)Nc%12ccc(-c%13ccc(NC(=O)Nc%14ccc(C)cc%14)cc%13S(=O)(=O)O)c(S(=O)(=O)O)c%12)cc%11S(=O)(=O)O)c(S(=O)(=O)O)c%10)cc9S(=O)(=O)O)c(S(=O)(=O)O)c8)cc7S(=O)(=O)O)c(S(=O)(=O)O)c6)cc5S(=O)(=O)O)c(S(=O)(=O)O)c4)cc3S(=O)(=O)O)c(S(=O)(=O)O)c2)cc1 [MDL-101,028]",–,–,7.10,7.40,not inhibited,~5.05,~5.10,48,90,90,61,63,20,greater than two hours and less than four hours,7-11%,77%-87%,not diminished,54,70,79
